Test results published in patent publication US8962263B2, “Methods and compositions for detecting the activation state of multiple proteins in single cells” (The Board of Trustees of the Leland Stanford Junior …, priority 2001, dated 2015).

B1: ICAM-2: biochemically purified soluble human ICAM-2 protein from retrovirally transduced NIH3T3 cells; ICAM-2-FC fusion also used (protein, UniProt P13598 25-223, looked up)
extracellular domain: KVFEVHVRPKKLAVEPKGSLEVNCSTTCNQPEVGGLETSLDKILLDEQAQWKHYLVSNISHDTVLQCHFTCSGKQESMNSNVSVYQPPRQVILTLQPTLVAVGKSFTIECRVPTVEPLDSLTLFLFRGNETLHYETFGKAAPAPQEATATFNSTADREDGHRNFSCLAVLDLMSRGGNIFHKHSAPKMLEIYEPVSDSQ
modifications: extracellular domain
notes: biochemically purified soluble human ICAM-2 protein from retrovirally transduced NIH3T3 cells; ICAM-2-FC fusion also used

Legend:
[1] = test system: p44/42 MAPK; test: intracellular phospho-p44/42 MAPK by flow cytometry in ICAM-2 treated Jurkat cells; type: cell-based, human; conditions: chemical agents 10 μM, EDTA 1 mM; mAbs titrated prior to ICAM-2
Source text: A) Mean fluorescent intensity values (MFI) of ICAM-2-FITC (adhesion) and mAb24-Alexa633, (LFA-1, activation) in treated Jurkat cells (as above). Control unstimulated and/or compound pretreated values were subtracted. B) Top panel: Intracellular phospho-p44/42, MAPK detection as a function of ICAM-2, dose in Jurkat cells by flow cytometry (see Material and Methods). Mean fluorescent intensity values (MFI) were plotted±standard deviation (SD). Bottom panel: ICAM-2, treated Jurkat cells were stained for intracellular phospho-p44/42, MAPK as described above. mAbs to β2, and αL, integrins (10, μg/ml, 10, minutes) were titrated prior to ICAM-2, treatment as indicated and plotted for MFI±SD. C) ICAM-2, induced p44/42, MAPK activity is blocked by β2, and αL, integrin antibodies as determined by a p44/42 MAPK kinase assay. Conditions for induction and inhibition are as described above. Recombinant active p44/42, MAPK served as an internal positive control (denoted by “+”). D) Inhibition and activation profile for intracellular phospho-p44/42, by flow cytometry in the presences of chemical agents (10, μM), EDTA (1, mM), or PMA, ionomycin and ICAM-2, stimulus (as indicated above). MFI values±SD are plotted.
Intracellular and extracellular staining was performed as described (Perez and Nolan, 2002). Intracellular probes for active kinases were made by conjugating phospho-specific antibodies to the ALEXA FLUOR® dye series as described and used in phospho-protein optimized conditions (Perez and Nolan, 2002). Kinetic analyses was performed by direct application of fixation buffer in time synchronized 96-wells maintained at 37° C. Intracellular actin and microtubule staining was performed using phalloidin-Alexa633 and taxol-Alexa546 dyes (Molecular Probes). Adhesion and clustering assays were performed using ICAM-2-FITC as described in text. LFA-1 activation was assessed by either mAb24-Alexa633 or mAb24-Alexa546 conjugate, surface stained at 37° C. Flow cytometry data are representative of 3 independent experiments of 10^6 cells/sample. 10-50,000 events were collected and manually calibrated on a FACSCalibur™ machine. Data plotted in bar graph format is expressed as geometric mean fluorescence intensity (MFI) and normalized for isotype controls. Log ratios are defined as the MFI of stimulus to the MFI of unstimulated cells. Data was analyzed using Flowjo™ software (Treestar).

[2] = test system: HL60 cells; test: FACS based effector-target killing assay, human PBMC against CFSE labeled HL60 cells; type: cell-based; conditions: 10 μg/ml, 50:1 E:T ratio, 4 hrs
Method: A) PBMC were either treated with ICAM-2, (10 μg/ml) in the presence of IL-2, for 12, hr and then incubated with CFSE labeled target HL60, cells at a 50:1, E:T ratio for 4, hrs. Remaining HL60, cells were quantified by flow cytometry. B) PBMC were treated with IL-2, (100, U/ml, 12, hrs) and treated with ICAM-1,-2, or 3, FC proteins (10, μg/ml) and used in a cytotoxicity assay as described above. Results are representative of 4, independent experiments.
Target cell lysis was measured by flow cytoemtric based detection of CFSE labeled HL60 cells. HL60 cells were labeled with 1 μg of CFSE (30 min, 37° C.). Targets were washed twice and mock treated, IL-2 activated (100 U/ml), CD3/CD28 activated (1 μg/ml), or treated with ICAM2 beads or soluble ICAM-1, -2, or 3 (10 μg/ml, 30 min, 37° C.) before plating at 10^4 target cells/well of a 96-well round bottom plate. CTLs were added at 50:1, 25:1, and 12.5:1 E:T ratio, and incubated at 37° C. for 4 hrs. Cells were then processed for multiparameter flow cytometry and intracellular perforin stain. Percent specific lysis was calculated by the following equation: % specific lysis=100-100×(experimental HL60 count/total control HL60 count). HL60 counts were detectable by the CFSE fluorescence. Percent perforin was calculated by the following equation: % perforin=100×[(experimental perforin MFI−isotype mAb MFI)/(total perforin MFI−isotype mAb MFI)]. MFI refers to mean fluorescent intensity of flow cytoemtric based intracellular detection. Cell conjugates were determined by flow cytometry as described (Morgan et al., 2001). Chemical inhibition was done at 10 μM of indicated compound (30 min, 37° C.) prior to stimulation as indicated. All experiments were performed in triplicate.

Molecule | effect on ICAM-2 induced p44/42 MAPK phosphorylation [1] | target cell lysis of HL60 cells [2]
CN(C)CCCn1cc(C2=C(c3c[nH]c4ccccc34)C(=O)NC2=O)c2ccccc21 [bisindolymaleimide I] | diminished | –
B1 | – | could initiate target cell lysis in the presence of IL-2 but not in the absence of IL-2
